From patent publication US5473039A, “Polypeptide analogs of apolipoprotein E, diagnostic systems and methods using the analogs” (The Scripps Research Institute, priority 1991, dated 1995) come the findings set out here.

Assay [1] has as its system ovarian theca/interstitial cells. Put plainly: ovarian androgen (androstenedione) production, LH-stimulated cultures. Conditions: 48 hours. The class given is cell-based, rats. From the text: The cell system used to examine the effect of various peptides and conjugates on ovarian androgen production was that described by Curtiss et al., J. Biol. Chem., 263:10965, (1988). Briefly, hypophysectomized (pituitary removed) immature female rats are sacrificed by cervical dislocation. The ovaries taken from the rats were trimmed free of fat and other non-ovarian tissues, cut into approximately six to eight pieces per ovary and dissociated in a solution of collagenase Dnaase which degrades the connective tissue releasing cell clusters. Approximately one to two hours of 37C incubation is required to dissociate the tissue. The cells were washed three times with fresh McCoy's 5A modified medium supplemented with glutamine and penicillin/streptomycin. No serum was added to this medium. The cells were cultured over night in 10 ml of medium in a T-25 flask to allow the non-steroidogenic cells to adhere. The next day non-adherent cells were recovered, washed three times with fresh media, counted and plated at a density of 1×10^3/ ml aliquotting 0.2 ml per well of a 96-well microtiter plate. All media in the experiment contains luteinizing hormone (LH) at 4 ng/ml and human high density lipoprotein (HDL) at 300 μg protein/mi. Monomeric peptides, peptide-BSA conjugates and self-conjugated peptide preparations at various concentrations (0.2 to 50 μg/ml) were added to the cells. The cells were then cultured for 48 hours at 37C, the supernatants were recovered, transferred to a clean 96-well microtiter plate and kept at -20C until the concentrations of androstenedione and progesterone were measured by radioimmunoassay. Each data point represents the average of measured androstenedione concentrations in four wells per treatment, and the standard error was less than 10% for all data points.
The ability of tandem Apo E peptide p(141-155)2 and self-conjugates of this peptide to affect ovarian androgen production was examined using the assay described in Example 4. […] After 48 hours of culture, the supernatants were collected, the androstenedione concentration measured by radioimmunoassay. […]

The test system of a further assay is scavenger receptor. The assay can be described thus: 125I-aLDL degradation by PMA-stimulated THP-1 cells. It counts as cell-based, human. Here is the method: To verify that the inhibition of LDL degradation was specific for the LDL receptor, the effect of the tandem peptide on scavenger receptor processing of acetylated LDL (aLDL) was tested.
THP-1 cells (5×10^5 in 1.0ml of DMEM medium per 16 mm culture dish) were stimulated with PMA (10^-7 M) for 4 days. LDL was acetylated (Hara, H. et al., Biochem. Biophys. Res. Comm., 146(2):802-808, 1987) and then radio-labeled as described in Example 8 to a specific activity of 300-500 cpm/ng resulting in ^125 I-aLDL that was greater than 99% precipitable by 10% TCA. The cells were washed with PBS and the assay performed in DMEM medium supplemented with 1% Nutridoma-HU plus 25 μg/ml of ^125 I-aLDL. After 5 hr at 37° C., the supernatants were removed from the wells and extracted with 10% TCA. The B/B0 ratios were analyzed as described above. The results are depicted in FIG. 1B.

Assay [2] concerns Human peripheral blood mononuclear (PBM) cells. The assay can be described thus: PHA-stimulated PBM cell proliferation in serum-free CFBI medium. It counts as cell-based. Here is the method: In these studies, human peripheral blood mononuclear (PBM) cells were isolated and assayed for phytohemagglutinin (PHA)-stimulated proliferation as described by Pepe et al (J. Immunol., 136:3716-3723, 1986) except that the cells were resuspended and cultured in a serum-free and protein-free CFBI medium as described by Shive et al, Proc. Natl. Acad. Sci. […] After 48 h the cultures were pulsed for 18 h with […] of [^3 H]-methylthymidine and harvested onto glass fiber filters. Radioactivity of the filters was counted in a Beckman liquid scintillation counter. […] The average biological activity of each polypeptide for inhibiting lymphocyte […] proliferation is shown in Table 6, and is expressed as an average specific activity, which is the peptide concentration that causes a 50% reduction in activity.

The target in another assay is LDL receptor (Homo sapiens, UniProt P01130). The assay can be described thus: fibroblast 125I-LDL degradation. The class given is cell-based. Also noted: transferred to DMEM medium with 10% lipoprotein-depleted serum (LPDS) for 48 hr to upregulate the LDL receptors; endogenous in cells; host or cells: normal fibroblasts. Conditions: low concentrations of the tandem peptide. The protocol:
A trimer of the p141-155 peptide, p(141-155)3, was synthesized as in Example 1 and its activity compared with p(141-155) (monomeric) and with p(141-155)2 (dimeric) peptide. Normal fibroblasts were plated in wells of a 96-well culture plate and grown for 96 hr in DMEM medium with 10% FBS. The cells were transferred to DMEM medium with 10% LPDS for 48 hr to up regulate the LDL receptors. The LDL degradation assay was performed according to Example 9 with 2 μg/ml of ^125 I-LDL (300-500 cpm/ng) in 0.2 ml/well in DMEM medium with 10% LPDS and incubated for 5 hr at 37° C. The supernatants removed from the wells were extracted with 10% TCA. The TCA soluble counts were normalized to protein content per well as measured by the Bio-Rad protein assay.

LDL receptor, sequence (P01130 22-860): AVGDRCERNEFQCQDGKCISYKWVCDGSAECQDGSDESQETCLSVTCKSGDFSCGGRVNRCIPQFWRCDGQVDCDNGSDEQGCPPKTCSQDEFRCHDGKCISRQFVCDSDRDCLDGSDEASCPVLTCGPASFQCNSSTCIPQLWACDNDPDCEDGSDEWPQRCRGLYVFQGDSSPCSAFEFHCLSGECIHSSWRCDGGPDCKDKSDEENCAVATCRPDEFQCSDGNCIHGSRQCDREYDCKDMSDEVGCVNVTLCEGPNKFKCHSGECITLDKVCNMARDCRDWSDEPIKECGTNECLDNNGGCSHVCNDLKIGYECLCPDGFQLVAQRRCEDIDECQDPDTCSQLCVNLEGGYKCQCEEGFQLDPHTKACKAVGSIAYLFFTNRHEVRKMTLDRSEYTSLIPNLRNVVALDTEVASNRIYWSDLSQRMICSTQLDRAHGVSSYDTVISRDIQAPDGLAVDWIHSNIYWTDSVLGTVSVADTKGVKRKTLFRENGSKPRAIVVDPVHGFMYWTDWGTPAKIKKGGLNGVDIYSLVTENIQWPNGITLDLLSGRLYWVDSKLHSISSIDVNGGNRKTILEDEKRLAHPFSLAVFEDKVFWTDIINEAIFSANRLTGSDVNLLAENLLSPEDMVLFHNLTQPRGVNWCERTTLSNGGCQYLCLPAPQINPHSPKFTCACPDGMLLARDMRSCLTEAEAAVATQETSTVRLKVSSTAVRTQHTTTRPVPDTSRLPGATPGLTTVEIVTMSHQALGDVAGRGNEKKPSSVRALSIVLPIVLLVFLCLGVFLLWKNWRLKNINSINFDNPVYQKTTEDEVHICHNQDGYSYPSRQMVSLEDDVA

For the compound `CC(C)C[C@H](NC(=O)[C@H](CC(=O)O)NC(=O)[C@H](CC(=O)O)NC(=O)[C@H](C)NC(=O)[C@H](CC(=O)O)NC(=O)[C@H](CCCNC(=N)N)NC(=O)[C@H](CC(C)C)NC(=O)[C@H](CC(C)C)NC(=O)[C@H](CCCNC(=N)N)NC(=O)[C@H](CCCCN)NC(=O)[C@H](CCCNC(=N)N)NC(=O)[C@H](CC(C)C)NC(=O)[C@H](CCCCN)NC(=O)[C@H](CCCNC(=N)N)NC(=O)[C@H](CC(C)C)NC(=O)[C@H](CC(C)C)NC(=O)[C@H](CC(=O)O)NC(=O)[C@H](CC(=O)O)NC(=O)[C@H](C)NC(=O)[C@H](CC(=O)O)NC(=O)[C@H](CCCNC(=N)N)NC(=O)[C@H](CC(C)C)NC(=O)[C@H](CC(C)C)NC(=O)[C@H](CCCNC(=N)N)NC(=O)[C@H](CCCCN)NC(=O)[C@H](CCCNC(=N)N)NC(=O)[C@H](CC(C)C)NC(=O)[C@H](CCCCN)NC(=O)[C@H](CCCNC(=N)N)NC(=O)[C@@H](N)CC(C)C)C(=O)O` [p(141-155)2], the “concentrations at which androstenedione production was enhanced” value in assay [1] is on record as “less than 0.04 μg/ml”. Further, the “concentrations that inhibited androstenedione production” value in assay [1] (dose-dependent) was in the range of 0.2 to 2 µg/mL. Besides, the “effect on 125I-aLDL degradation” value in the assay with scavenger receptor (listed as tandem apo E peptide) was “no effect”. Also, in the assay with scavenger receptor (listed as tandem peptide), the “effect on 125I-aLDL degradation” value is on record as “Neither LDL or tandem peptide inhibited”. In addition, in assay [2], the “biologic activity (inhibition of lymphocyte proliferation)” value is on record as “loss of biologic activity” and the “peptide concentration above which uptake of tritiated thymidine / lymphocyte proliferation was inhibited” value is “above 4 uM”. Further, the IC50 in assay [2] (read-out: Average Specific Activity (peptide concentration that causes a 50% reduction in activity)) turned out to be 4.8 ± 1.1 µM. For the same compound, the “effect on LDL degradation by fibroblasts” value at LDL receptor is given as “significant enhancement”.
